# Publication PMC6751662, “Pharmacological and functional similarities of the human neuropeptide Y system in C. elegans challenges phylogenetic views on the FLP/NPR system” (Cell Communication and Signaling : CCS, 2019)
# Ends that are not written are not given here.
# Tests used:
# Format in all cases: cell-based, C. elegans
# NPR-4b = molecular target: T1, NPR-4b (Caenorhabditis elegans, UniProt A0A078BTK0); experiment: cAMP reporter gene assay, Gi/o (inhibition of forskolin-induced cAMP), NPR-4b; settings: for Emax: NPR-4b, forskolin (1 µM) set to 1.00, lower values correspond to high Gi/o activity, mean ± SEM of at least three independent experiments, SEM; for Emax / cAMP, x-fold of forskolin (mean), NPR-4b / Gi (Gs) [x-fold of forskolin], NPR-4b, mean: transiently transfected HEK293 cells; for cAMP, x-fold of forskolin (mean), NPR-4b: 1 µM forskolin set to 1.00; for cAMP, x-fold of forskolin (mean), NPR-4b / Gi (Gs) [x-fold of forskolin], NPR-4b, mean: mean of at least three independent experiments; for Gi (Gs) [x-fold of forskolin], NPR-4b, mean: inhibition of cAMP production induced by 1 µM forskolin (set to 1.00)
# T1 sequence (A0A078BTK0 1-376): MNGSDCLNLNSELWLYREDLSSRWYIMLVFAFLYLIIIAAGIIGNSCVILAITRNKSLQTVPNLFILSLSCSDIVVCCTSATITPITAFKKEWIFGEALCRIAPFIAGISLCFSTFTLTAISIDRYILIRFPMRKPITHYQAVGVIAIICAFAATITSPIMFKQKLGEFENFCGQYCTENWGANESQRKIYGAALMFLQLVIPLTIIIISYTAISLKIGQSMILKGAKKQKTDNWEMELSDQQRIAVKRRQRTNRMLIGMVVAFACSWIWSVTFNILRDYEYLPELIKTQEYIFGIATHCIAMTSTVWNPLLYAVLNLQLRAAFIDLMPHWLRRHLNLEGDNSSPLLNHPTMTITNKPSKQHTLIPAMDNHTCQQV
# Experimental: (§1) Activation of Gs and Gi/o was assessed with a cAMP reporter gene assay. HEK293 cells grown to 70–80% confluency in 6-well plates were transiently co-transfected with vectors encoding the receptor and the cAMP reporter gene plasmid pGL4.29 [luc2P/CRE/Hygro] (Promega; 4 μg total, 1:1 ratio) using Metafectene Pro (3 μl/μg DNA; Biontex) following the manufacturer’s instructions. 16 h post transfection, the cells were seeded into white 384-well plates at a density of 20,000 cells/well. On the next day, the medium was removed and the cells were stimulated with 20 μl of peptide solution (or forskolin as positive control) in serum-free DMEM for 4 h. For measuring Gi/o activity, the peptide solutions additionally contained 1 μM forskolin to elevate cellular cAMP levels. After incubation, the luciferase substrate OneGlo in lysis buffer (Promega) was added and the luminescence was measured in a microplate reader Tecan Spark (Tecan).
# (§2) For in vitro activation, data is presented as mean ± SEM of at least three independent experiments conducted in technical triplicate. […] For the C. elegans NPRs, we considered the strongest response elicited by any of the peptides downstream of a particular receptor as the receptor’s maximal signal. This may or may not be the biological maximum that can be reached by the ‘true’ endogenous agonist. For the human receptors, the response to the established endogenous agonist reflected the maximal signal.
# NPR-3 = molecular target: T2, NPR-3 (Caenorhabditis elegans, UniProt P90745); experiment: cAMP reporter gene assay, Gi/o (inhibition of forskolin-induced cAMP), NPR-3; settings: for Emax: HEK293, read-out: Emax ± SEM [%]; for cAMP, x-fold of forskolin (mean), NPR-3: 1 µM forskolin set to 1.00; for cAMP, x-fold of forskolin (mean), NPR-3 / Gi (Gs) [x-fold of forskolin], NPR-3, mean: transiently transfected HEK293 cells, mean of at least three independent experiments; for Gi (Gs) [x-fold of forskolin], NPR-3, mean: inhibition of cAMP production induced by 1 µM forskolin (set to 1.00)
# T2 construct: expressed in transfected cells; host or cells: HEK293
# T2 sequence (P90745 1-376): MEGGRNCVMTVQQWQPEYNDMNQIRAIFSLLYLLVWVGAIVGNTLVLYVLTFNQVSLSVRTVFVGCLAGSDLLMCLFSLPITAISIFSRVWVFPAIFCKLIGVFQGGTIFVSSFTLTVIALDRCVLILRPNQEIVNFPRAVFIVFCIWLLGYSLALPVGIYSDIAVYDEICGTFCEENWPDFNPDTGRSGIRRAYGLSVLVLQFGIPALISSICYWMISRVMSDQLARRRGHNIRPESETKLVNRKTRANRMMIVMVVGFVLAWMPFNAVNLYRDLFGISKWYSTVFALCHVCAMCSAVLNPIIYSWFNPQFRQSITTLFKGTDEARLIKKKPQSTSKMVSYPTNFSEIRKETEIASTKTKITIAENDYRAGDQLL
# Experimental: as §1, with “(Tecan). Data were analyzed with GraphPad Prism 5.03 and are shown as fold of basal or fold of forskolin in case of Gαi/o activity.” for “(Tecan).”
# as §2
# NPR-6 = experiment: cAMP reporter gene assay, Gi/o (inhibition of forskolin-induced cAMP), NPR-6; settings: transiently transfected HEK293 cells, mean of at least three independent experiments; for cAMP, x-fold of forskolin (mean), NPR-6: 1 µM forskolin set to 1.00; for Gi (Gs) [x-fold of forskolin], NPR-6, mean: inhibition of cAMP production induced by 1 µM forskolin (set to 1.00)
# Experimental: as §1, with “(Tecan). Data were analyzed with GraphPad Prism 5.03 and are shown as fold of basal or fold of forskolin in case of Gαi/o activity.” for “(Tecan).”
# as §2
substance,measurement,setting,value
SEVPGVLRF-NH2 [FLP-18-5],Emax,NPR-4b,-0.6 ± 0.05%
RGPSGPLRF-NH2 [FLP-15-2],Emax,NPR-4b,-0.65 ± 0.07%
same,Emax,NPR-3; SEM,-0.8 ± 0.09%
same,EC50,NPR-3; SEM,50.1 nM
"EASAFGDIIGELKGKGLGGRMRF-NH2 [FLP-27, NPY-like C. elegans FLP with C-terminal RxRF/Ya signature]","cAMP, x-fold of forskolin (mean), NPR-4b",NPR-4b; 0.1 µM peptide,1.07 x-fold of forskolin
same,"cAMP, x-fold of forskolin (mean), NPR-4b",NPR-4b; 10 µM peptide,0.57 x-fold of forskolin
same,"cAMP, x-fold of forskolin (mean), NPR-6",NPR-6; 0.1 µM peptide,1.02 x-fold of forskolin
same,"cAMP, x-fold of forskolin (mean), NPR-6",NPR-6; 10 µM peptide,0.88 x-fold of forskolin
same,"cAMP, x-fold of forskolin (mean), NPR-3",NPR-3; 0.1 µM peptide,0.84 x-fold of forskolin
same,"cAMP, x-fold of forskolin (mean), NPR-3",NPR-3; 10 µM peptide,1.15 x-fold of forskolin
"GLGPRPLAF-NH2 [[R8A]FLP-21, R8A control peptide of FLP-21, penultimate arginine exchanged for an alanine]","Gi (Gs) [x-fold of forskolin], NPR-4b, mean",NPR-4b; 0.1 µM peptide,0.95 x-fold of forskolin
same,"Gi (Gs) [x-fold of forskolin], NPR-4b, mean",NPR-4b; 10 µM peptide,0.99 x-fold of forskolin
same,"Gi (Gs) [x-fold of forskolin], NPR-6, mean",NPR-6; 0.1 µM peptide,1.00 x-fold of forskolin
same,"Gi (Gs) [x-fold of forskolin], NPR-6, mean",NPR-6; 10 µM peptide,0.86 x-fold of forskolin
same,"Gi (Gs) [x-fold of forskolin], NPR-3, mean",NPR-3; 0.1 µM peptide,1.20 x-fold of forskolin
same,"Gi (Gs) [x-fold of forskolin], NPR-3, mean",NPR-3; 10 µM peptide,1.38 x-fold of forskolin
RGPSGPLAF-NH2 [[R8A]FLP-15-2],"Gi (Gs) [x-fold of forskolin], NPR-4b, mean",NPR-4b; 0.1 µM peptide,0.93 x-fold of forskolin
same,"Gi (Gs) [x-fold of forskolin], NPR-4b, mean",NPR-4b; 10 µM peptide,0.97 x-fold of forskolin
same,"Gi (Gs) [x-fold of forskolin], NPR-6, mean",NPR-6; 0.1 µM peptide,0.92 x-fold of forskolin
same,"Gi (Gs) [x-fold of forskolin], NPR-6, mean",NPR-6; 10 µM peptide,0.99 x-fold of forskolin
same,"Gi (Gs) [x-fold of forskolin], NPR-3, mean",NPR-3; 0.1 µM peptide,0.97 x-fold of forskolin
same,"Gi (Gs) [x-fold of forskolin], NPR-3, mean",NPR-3; 10 µM peptide,0.88 x-fold of forskolin
GLGPRPLRF-NH2 [FLP-21],EC50,NPR-4b,358 nM
same,Emax,NPR-4b,-0.58 ± 0.07%
same,Emax,NPR-3; SEM,-0.59 ± 0.26%
"APLEGFEDMSGFLRTIDGIQKPRF-NH2 [FLP-33, NPY-like C. elegans FLP with C-terminal RxRF/Ya signature]","cAMP, x-fold of forskolin (mean), NPR-4b",NPR-4b; 0.1 µM peptide,0.85 x-fold of forskolin
same,"cAMP, x-fold of forskolin (mean), NPR-4b",NPR-4b; 10 µM peptide,0.79 x-fold of forskolin
same,"cAMP, x-fold of forskolin (mean), NPR-6",NPR-6; 0.1 µM peptide,0.86 x-fold of forskolin
same,"cAMP, x-fold of forskolin (mean), NPR-6",NPR-6; 10 µM peptide,0.91 x-fold of forskolin
same,"cAMP, x-fold of forskolin (mean), NPR-3",NPR-3; 0.1 µM peptide,0.77 x-fold of forskolin
same,"cAMP, x-fold of forskolin (mean), NPR-3",NPR-3; 10 µM peptide,0.85 x-fold of forskolin
